{
  "source": "patent US10689673B2",
  "about": "“Bioconversion process for producing nylon-7, nylon-7,7 and polyesters” (INVISTA NORTH AMERICA S.A.R.L., priority 2011, dated 2020)",
  "key": {"[1]": {"target": "T1, Haemophilus influenzae YciA thioesterase (Haemophilus influenzae, UniProt P44886)", "T1 construct": "made in house; host or cells: E. coli BL21 (DE3), cell-free extract", "T1 sequence (P44886 whole entry)": "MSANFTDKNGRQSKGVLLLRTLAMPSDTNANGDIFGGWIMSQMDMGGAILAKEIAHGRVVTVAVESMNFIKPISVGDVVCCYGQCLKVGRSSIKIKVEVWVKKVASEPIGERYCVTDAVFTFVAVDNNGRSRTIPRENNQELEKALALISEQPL", "experiment": "Biotransformation of pimeloyl-CoA to pimelic acid with YciA thioesterase cell free extract", "type": "biochemical", "settings": "1 mM substrate, ~15 g/L whole cell equivalents, pH 7.5, 20° C., after 1 hour", "experimental": "Biotransformations were carried out in a final volume of 2 mL. The biotransformations comprised of 1 mM substrate, 200 mM KCl and 50 mM potassium Hepes (pH 7.5). Negative controls comprised of cells harbouring the empty vector The biocatalyst was charged as a cell free extract to give a final concentration of ˜15 g/L whole cell equivalents. The reactions were carried out at ambient temperature (20° C.) in 15 mL falcon tubes with stirring. Each biotransformation was sampled after 1 h, 4 h and 24 h and analysed by HPLC (Agilent 1100) on a Phenomenex Luna C18 250×4.6 mm, 5 micron column. […] The filtrates were analysed by HPLC at 260 nm for the disappearance of pimeloyl-CoA (Rt 12.39 mins) and the formation of CoA (Rt 7.98 minutes), both which absorbs strongly at this wavelength, while pimlic acid was not detectable by UV at 260 nm. Pimelic acid formation was confirmed by LC-MS."}, "[2]": {"target": "T2, Nocardia sp. carboxylic acid reductase (CAR) (Nocardia iowensis, UniProt Q6RKB1)", "T2 construct": "made in house; host or cells: E. coli BL21, cell-free extract", "T2 sequence (Q6RKB1 2-1174)": "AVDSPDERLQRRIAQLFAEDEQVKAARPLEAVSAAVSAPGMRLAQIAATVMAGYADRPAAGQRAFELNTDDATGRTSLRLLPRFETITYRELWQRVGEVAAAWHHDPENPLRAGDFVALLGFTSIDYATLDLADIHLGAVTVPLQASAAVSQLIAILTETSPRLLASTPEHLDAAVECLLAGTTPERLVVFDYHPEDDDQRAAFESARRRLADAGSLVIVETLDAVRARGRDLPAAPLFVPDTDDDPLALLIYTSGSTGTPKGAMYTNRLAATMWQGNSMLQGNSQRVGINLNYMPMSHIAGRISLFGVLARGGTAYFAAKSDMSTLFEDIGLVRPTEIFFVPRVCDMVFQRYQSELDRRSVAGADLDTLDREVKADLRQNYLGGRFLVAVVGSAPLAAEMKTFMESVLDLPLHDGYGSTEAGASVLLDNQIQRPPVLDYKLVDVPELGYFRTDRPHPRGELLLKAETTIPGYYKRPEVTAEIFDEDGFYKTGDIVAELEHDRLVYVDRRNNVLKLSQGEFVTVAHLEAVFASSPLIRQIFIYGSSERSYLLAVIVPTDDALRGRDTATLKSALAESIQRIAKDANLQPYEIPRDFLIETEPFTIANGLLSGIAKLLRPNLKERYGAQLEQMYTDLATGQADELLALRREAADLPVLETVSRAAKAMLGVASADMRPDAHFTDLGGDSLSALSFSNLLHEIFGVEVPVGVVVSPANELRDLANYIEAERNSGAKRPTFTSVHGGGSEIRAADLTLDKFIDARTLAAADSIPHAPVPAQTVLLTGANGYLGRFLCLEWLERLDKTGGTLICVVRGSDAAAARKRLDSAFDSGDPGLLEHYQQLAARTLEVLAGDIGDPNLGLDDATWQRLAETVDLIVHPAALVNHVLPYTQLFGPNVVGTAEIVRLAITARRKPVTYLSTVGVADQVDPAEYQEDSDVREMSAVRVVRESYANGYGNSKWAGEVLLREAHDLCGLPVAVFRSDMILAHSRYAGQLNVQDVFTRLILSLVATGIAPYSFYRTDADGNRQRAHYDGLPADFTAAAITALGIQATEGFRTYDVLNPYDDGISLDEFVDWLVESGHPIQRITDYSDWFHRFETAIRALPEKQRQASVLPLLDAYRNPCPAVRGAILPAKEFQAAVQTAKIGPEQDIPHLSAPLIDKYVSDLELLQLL", "experiment": "Carboxylic acid reductase (CAR) spectrophotometric assay of NADPH consumption", "type": "biochemical", "excerpt": "The conditions for the assay were taken from Applied and Environmental Microbiology 2004, 70, p 1874-1881."}, "[3]": {"system": "PauA pimeloyl-CoA ligase (EC 6.2.1.14)", "settings": "substrate of pauA; pimelate = 100%; cited from earlier work"}, "[4]": {"target": "T3, Aminoadipate aminotransferase (Q64602) (Bos taurus, UniProt Q5E9N4)", "T3 construct": "host or cells: bovine kidney", "T3 sequence (Q5E9N4 30-425, one chain of several)": "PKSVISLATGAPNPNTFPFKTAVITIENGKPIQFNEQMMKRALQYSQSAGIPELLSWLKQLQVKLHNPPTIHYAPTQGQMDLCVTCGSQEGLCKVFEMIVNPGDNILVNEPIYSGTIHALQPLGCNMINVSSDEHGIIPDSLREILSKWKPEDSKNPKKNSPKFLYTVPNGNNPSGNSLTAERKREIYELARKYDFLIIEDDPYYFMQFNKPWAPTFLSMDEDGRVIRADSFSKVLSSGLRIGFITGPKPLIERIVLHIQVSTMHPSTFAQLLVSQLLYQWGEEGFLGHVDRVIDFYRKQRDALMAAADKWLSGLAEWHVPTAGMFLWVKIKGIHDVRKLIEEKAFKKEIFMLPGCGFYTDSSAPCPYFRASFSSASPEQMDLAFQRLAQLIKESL", "settings": "cited from earlier work"}, "[5]": {"target": "T4, ACOT4 peroxisomal acyl-CoA thioesterase 4 (Mus musculus, UniProt Q8BWN8)", "T4 construct": "His tag; host or cells: E. coli", "T4 sequence (Q8BWN8 1-421)": "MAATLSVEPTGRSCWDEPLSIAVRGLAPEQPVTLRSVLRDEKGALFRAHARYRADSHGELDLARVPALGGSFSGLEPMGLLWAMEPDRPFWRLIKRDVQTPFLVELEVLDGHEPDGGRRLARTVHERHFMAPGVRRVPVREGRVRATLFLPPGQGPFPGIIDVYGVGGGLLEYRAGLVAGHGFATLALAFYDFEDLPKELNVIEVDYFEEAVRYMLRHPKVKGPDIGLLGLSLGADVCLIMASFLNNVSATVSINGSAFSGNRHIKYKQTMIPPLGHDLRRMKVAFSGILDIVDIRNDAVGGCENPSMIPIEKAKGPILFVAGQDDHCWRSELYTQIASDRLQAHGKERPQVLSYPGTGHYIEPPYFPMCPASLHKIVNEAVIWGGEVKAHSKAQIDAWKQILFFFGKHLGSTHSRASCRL", "settings": "at concentrations up to 500 μM; cited from earlier work"}, "ACOT3 (formerly PTE-1a)": {"target": "T5, ACOT3 (formerly PTE-1a) (Mus musculus, UniProt Q9QYR7)", "T5 construct": "His tag; host or cells: E. coli", "T5 sequence (Q9QYR7 1-432)": "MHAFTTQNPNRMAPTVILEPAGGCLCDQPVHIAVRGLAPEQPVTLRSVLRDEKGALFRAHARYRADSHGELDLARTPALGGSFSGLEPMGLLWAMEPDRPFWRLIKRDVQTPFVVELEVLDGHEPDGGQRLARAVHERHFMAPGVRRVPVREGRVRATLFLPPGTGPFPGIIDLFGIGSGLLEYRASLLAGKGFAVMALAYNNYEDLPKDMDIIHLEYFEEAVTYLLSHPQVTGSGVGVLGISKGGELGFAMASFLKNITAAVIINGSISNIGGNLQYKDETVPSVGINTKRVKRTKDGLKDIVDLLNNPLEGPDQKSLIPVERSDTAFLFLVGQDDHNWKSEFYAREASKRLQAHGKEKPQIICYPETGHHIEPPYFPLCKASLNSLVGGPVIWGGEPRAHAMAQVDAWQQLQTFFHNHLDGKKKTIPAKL", "settings": "cited from earlier work"}, "ACOT5 (formerly PTE-1c)": {"target": "T6, ACOT5 (formerly PTE-1c) (Mus musculus, UniProt Q6Q2Z6)", "T6 construct": "His tag; host or cells: E. coli", "T6 sequence (Q6Q2Z6 1-421)": "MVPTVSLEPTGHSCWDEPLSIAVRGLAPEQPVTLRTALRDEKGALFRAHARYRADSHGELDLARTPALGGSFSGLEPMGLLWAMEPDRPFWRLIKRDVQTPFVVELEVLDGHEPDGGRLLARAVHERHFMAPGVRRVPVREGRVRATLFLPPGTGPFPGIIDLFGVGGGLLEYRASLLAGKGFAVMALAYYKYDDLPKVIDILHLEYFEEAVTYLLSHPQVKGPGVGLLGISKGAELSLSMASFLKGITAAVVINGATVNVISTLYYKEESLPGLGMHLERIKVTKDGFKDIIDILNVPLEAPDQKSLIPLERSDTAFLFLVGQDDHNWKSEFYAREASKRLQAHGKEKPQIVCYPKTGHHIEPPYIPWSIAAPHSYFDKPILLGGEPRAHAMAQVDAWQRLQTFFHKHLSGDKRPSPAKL", "settings": "cited from earlier work"}, "[6]": {"target": "T7, Citrobacter amalonaticus methylaspartate ammonia lyase (MAL) (Citrobacter amalonaticus, UniProt O66145)", "T7 construct": "made in house; host or cells: E. coli BL21 (DE3), pET21-a, cell-free extract", "T7 sequence (O66145 whole entry)": "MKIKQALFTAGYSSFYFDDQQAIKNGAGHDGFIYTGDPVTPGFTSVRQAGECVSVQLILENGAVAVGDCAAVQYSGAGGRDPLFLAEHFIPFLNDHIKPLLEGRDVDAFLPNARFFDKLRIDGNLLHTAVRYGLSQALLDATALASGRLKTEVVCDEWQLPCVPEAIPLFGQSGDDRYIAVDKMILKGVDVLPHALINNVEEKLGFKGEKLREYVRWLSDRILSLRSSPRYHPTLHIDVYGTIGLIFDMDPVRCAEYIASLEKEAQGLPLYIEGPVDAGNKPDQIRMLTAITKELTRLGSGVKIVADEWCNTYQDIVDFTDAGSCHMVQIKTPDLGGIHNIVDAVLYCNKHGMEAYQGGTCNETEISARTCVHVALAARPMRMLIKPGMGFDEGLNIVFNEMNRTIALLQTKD", "experiment": "Biotransformation of beta-methyl aspartate with I4 lyase strain cell extract", "type": "biochemical", "settings": "10 mM substrate, 5 or 20 g/L whole cell equivalent, 30° C., after 1 hour"}, "[7]": {"target": "T8, Clostridium tetanomorphum methylaspartate ammonia lyase (MAL) (Clostridium tetanomorphum, UniProt Q05514)", "T8 construct": "made in house; host or cells: E. coli BL21 (DE3), pET21-a, cell-free extract", "T8 sequence (Q05514 whole entry)": "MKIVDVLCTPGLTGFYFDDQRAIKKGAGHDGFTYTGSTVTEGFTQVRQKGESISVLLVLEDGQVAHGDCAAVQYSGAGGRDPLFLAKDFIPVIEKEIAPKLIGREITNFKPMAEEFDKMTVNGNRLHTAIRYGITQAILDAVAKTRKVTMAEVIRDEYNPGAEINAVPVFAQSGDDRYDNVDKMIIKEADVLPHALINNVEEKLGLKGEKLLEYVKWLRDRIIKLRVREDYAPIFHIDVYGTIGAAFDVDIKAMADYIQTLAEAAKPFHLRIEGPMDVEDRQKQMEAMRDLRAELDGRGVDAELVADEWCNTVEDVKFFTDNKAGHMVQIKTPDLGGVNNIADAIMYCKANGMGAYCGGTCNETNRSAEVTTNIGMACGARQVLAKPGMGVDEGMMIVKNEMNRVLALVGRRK", "experiment": "Biotransformation of beta-methyl aspartate with I5 lyase strain cell extract", "type": "biochemical", "settings": "10 mM substrate, 5 or 20 g/L whole cell equivalent, 30° C., after 1 hour"}, "[8]": {"system": "Aspergillus oryzae methylaspartate ammonia lyase (MAL)", "settings": "10 mM substrate, 5 or 20 g/L whole cell equivalent, 30° C., 1, 5 and 18 hours"}},
  "data": [
    {"compound": "CC(C)(COP(=O)(O)OP(=O)(O)OC[C@H]1O[C@@H](n2cnc3c(N)ncnc32)[C@H](O)[C@@H]1OP(=O)(O)O)[C@@H](O)C(=O)NCCC(=O)NCCSC(=O)CCCCCC(=O)O", "note": "[pimeloyl-CoA]", "values": [
      {"measurement": "hydrolysis to pimelic acid", "setting": "[1]", "value": "Complete hydrolysis"}
    ]},
    {"compound": "O=C(O)CCCCCC(=O)O", "note": "[Pimelic acid]", "values": [
      {"measurement": "NADPH consumption (uncorrected)", "setting": "[2]; 50 mM substrate, rCAR cell free extract 4.3 g/L whole cell equivalents, pH 7.5, ~20 deg C, change in absorbance over time", "value": "−0.00096"},
      {"measurement": "NADPH consumption (corrected for background)", "setting": "[2]; as uncorrected, corrected with negative control (BL21 empty vector) rate", "value": "−0.00103"},
      {"measurement": "activity relative to the activity for benzoic acid", "setting": "[2]; reduction to pimelic acid semialdehyde", "value": "> 100", "unit": "%"},
      {"measurement": "relative activity", "setting": "[3]", "value": 100, "unit": "%"},
      {"measurement": "reduction in activity in the presence of pimelic acid", "setting": "[4]", "value": 30, "unit": "%"}
    ]},
    {"compound": "CC(C)(COP(=O)(O)OP(=O)(O)OC[C@H]1O[C@@H](n2cnc3c(N)ncnc32)[C@H](O)[C@@H]1OP(=O)(O)O)[C@@H](O)C(=O)NCCC(=O)NCCS", "note": "[CoASH]", "values": [
      {"measurement": "inhibition of the reaction by CoASH", "setting": "[5]", "value": "not inhibited"},
      {"measurement": "inhibition with free CoASH", "setting": "ACOT3 (formerly PTE-1a)", "value": "no inhibition"},
      {"measurement": "inhibition with free CoASH", "setting": "ACOT5 (formerly PTE-1c)", "value": "no inhibition"}
    ]},
    {"compound": "C[C@H](C(=O)O)[C@@H](N)C(=O)O", "note": "(racemic) [DL-threo-beta methyl aspartate]", "values": [
      {"measurement": "conversion to mesaconic acid", "setting": "[6]", "value": "complete conversion"},
      {"measurement": "conversion to mesaconic acid", "setting": "[7]", "value": "complete conversion"},
      {"measurement": "lyase activity (mesaconic acid formation)", "setting": "[8]", "value": "No activity"}
    ]}
  ]
}
